Assay results taken from PMC11266932, “Enhanced absorption of prenylated cinnamic acid derivatives from Brazilian green propolis by turmeric in humans and rats” (Food Science & Nutrition, 2024).
“Also recorded” adds a separate entry of the source.

Key:
[1] = Clinical trial: plasma concentration and AUC of cinnamic acid derivatives after ingestion of BGP alone or BGP plus herbal extract mixture; type: in vivo; settings: humans, BGP and herbal extracts co-administered; for fold increase of AUC versus BGP administered alone: 0–24 h; for AUC: plasma 0–24 h, after enzymatic deconjugation, mean ± SD, n = 6
Experimental: Six volunteers (three males and three females) completely understood the study protocol and consented to participate in the research. The following exclusion criteria were used for shortlisting participants: past or present medical history (asthma, significant allergies, heart, liver, kidney, and urinary tract disease); prescribed medication; pregnancy; smoking (>20 cigarettes/day); alcohol consumption (>500 mL/day of beer); use of dietary supplements and healthy foods; and participation in other clinical trials. The participants were instructed to refrain from consuming propolis and propolis‐containing foods and beverages during the study period and 1 week prior to the start of the study. After a 12‐h fast, the participants were given a test food comprising the encapsulated BGP powder or a mixture of the BGP powder and herbal extracts in two experimental periods separated by 1 week. […] The collected samples were centrifuged at 1500 g for 3 min at 23 ± 2°C to separate the plasma, which was subsequently preserved at −80°C until further sample preparation.
(§1) Briefly, 50 μL of plasma was treated with a sulfatase/β‐glucuronidase solution (sulfatase 15 units/sample) in 100 mM sodium acetate and 5 mM ascorbate at 37°C for 1 h. Following the incubation, 850 μL of methanol was added to the samples to stop the deconjugation reaction, after which centrifugation was performed at 2000 g for 10 min at 23 ± 2°C. The supernatant was evaporated under nitrogen gas and then reconstituted in a fixed volume of methanol. The samples were filtered through a 0.22 μm PTFE membrane and then analyzed by LC–MS/MS.
(§2) Briefly, 5 μL of the sample was injected into a reversed‐phase column (Acquity UPLC BEH C18, 2.1 × 100 mm, ID. 1.7 μm; Waters, Milford, MA, USA) held at 30°C. The elution was performed using solvent A (0.1% formic acid) and solvent B (acetonitrile) at a flow rate of 0.3 mL/min. The gradient profiles were as follows: 5% B (0–2 min), 5–95% B (2–22 min), 95% B (22–25 min), and 5% B (25–30 min). Tandem mass spectrometry (MS/MS) was conducted using an ion trap mass spectrometer with a heated electrospray ion source (HESI) in both positive and negative ionization modes (scan range m/z 70–1000). […] External standard curves for cinnamic acid derivatives were generated using eight concentrations of authentic standard solutions (1, 5, 10, 50, 100, 250, 500, and 1000 ng/mL).
(§3) Quantification of cinnamic acid derivatives in the plasma was performed using the Trace Finder software version 4.1 (Thermo Scientific). The plasma concentration versus time data for the analytes obtained from each human and rat were entered into a Microsoft Excel spreadsheet. The area under the plasma concentration–time curve (AUC) was calculated using the linear trapezoidal rule, extending to the last sampling point.

[2] = Animal study: plasma concentration and AUC of cinnamic acid derivatives after intragastric BGP with or without each herbal extract; type: in vivo, Wistar/ST rats; settings: rats; for plasma concentration, BGP alone versus BGP and turmeric (in words): 24 h post-ingestion; for AUC: intragastric, 0–24 h, mean ± SD, n = 8
Experimental: Wistar/ST rats (male, 7 weeks old) were purchased from Japan SLC (Shizuoka, Japan). […] The rats were quarantined and acclimatized under the above conditions for 1 week and divided into six groups (eight rats/group) according to their average body weight (240–260 g). Each test sample listed in Table 1 was dissolved in 10% propylene glycol (1 mL per rat) and administered intragastrically to the rats after an overnight fasting period with free access to water. […] The collected samples were centrifuged at 1500 g for 10 min at 4°C to separate the plasma and preserved at −80°C until further sample preparation.
as §1, §2, §3

[3] = BGP co-administered with gotu kola extract
[4] = BGP co-administered with turmeric extract

| AUC ([1]; both sexes, human, oral, read-out: AUC) [ng·h/mL] | AUC ([2]; male, Wistar/ST, rat, plasma, po, BGP 75 mg/kg co-administered with gotu kola extract 250 mg/kg, read-out: AUC) [ng·h/mL] | AUC ([2]; male, Wistar/ST, rat, plasma, po, BGP 75 mg/kg co-administered with turmeric extract 250 mg/kg, read-out: AUC) [ng·h/mL] | fold increase of AUC versus BGP administered alone [2, 3] [fold] | Compound | fold increase of AUC versus BGP administered alone [1] [fold] | AUC [1] [ng·h/mL] | plasma concentration, BGP alone versus BGP and turmeric (in words) [2] | AUC ([2]; BGP 75 mg/kg administered alone) [ng·h/mL] | AUC ([2]; BGP 75 mg/kg co-administered with turmeric extract 250 mg/kg) [ng·h/mL] | peaks of the plasma concentration–time curve ([2]; BGP + turmeric extract) | fold increase of plasma concentration versus BGP alone ([2]; BGP + turmeric extract, 30 min after administration) [fold] | fold increase of plasma concentration versus BGP alone ([2]; BGP + turmeric extract, 6 h after administration) [fold] | change of AUC versus BGP alone (in words) ([2]; BGP co-administered with coffee fruit extract) | change of AUC versus BGP alone (in words) ([2]; BGP co-administered with ginkgo leaf extract) | change of AUC versus BGP alone (in words) [2, 3] | change of AUC versus BGP alone (in words) ([2]; BGP co-administered with soybean extract) | fold increase of AUC versus BGP administered alone [2, 4] [fold] | change of plasma concentration versus BGP alone (in words) ([2]; BGP + turmeric extract, at 30 min and 3 h) |
| --- | --- | --- | --- | --- | --- | --- | --- | --- | --- | --- | --- | --- | --- | --- | --- | --- | --- | --- |
|  |  |  |  | CC(C)=CCc1cc(/C=C/C(=O)O)cc(CC=C(C)C)c1O [artepillin C] | 1.7 | 312.9 ± 91.4 | did not differ | 1018.0 ± 184.5 | 1377.2 ± 320.2 | two distinct peaks at 30 min and 6 h | 1.7 | 1.5 | did not significantly alter | did not significantly alter | did not significantly alter; also recorded: not changed | did not significantly alter | 1.4 |  |
| 446 ± 144 | 629 ± 167 | 627 ± 148 | 1.3 | CC(C)=CCc1cc(/C=C/C(=O)O)ccc1O [drupanin] | 1.5 |  | did not differ |  |  |  |  |  |  |  | tended to increase |  | 1.3 | significant increases or increasing trends |
